Values joined by “and” are separate entries in the source; they are usually repeats but may differ in a detail not shown here. Equal entries are not always repeated.
Assays:
Adenosine receptor A3 = biological target: T1, Adenosine receptor A3 (Homo sapiens, UniProt P0DMS8)
T1 sequence (P0DMS8 whole entry): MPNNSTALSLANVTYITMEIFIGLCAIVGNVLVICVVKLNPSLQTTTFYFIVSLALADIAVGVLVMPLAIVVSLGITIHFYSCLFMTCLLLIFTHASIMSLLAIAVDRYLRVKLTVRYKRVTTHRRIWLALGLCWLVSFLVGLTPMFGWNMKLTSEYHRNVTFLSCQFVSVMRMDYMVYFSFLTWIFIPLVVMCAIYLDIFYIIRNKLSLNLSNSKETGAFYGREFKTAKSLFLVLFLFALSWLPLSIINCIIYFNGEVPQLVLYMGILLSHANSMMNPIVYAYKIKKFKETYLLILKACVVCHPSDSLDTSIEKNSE

[1] = biological target: Neuronal acetylcholine receptor subunit alpha-4 (Homo sapiens, UniProt P43681)
[2] = biological target: T2, 5-hydroxytryptamine receptor 1A (Homo sapiens, UniProt P08908); type: functional, cell-based
T2 sequence (P08908 whole entry): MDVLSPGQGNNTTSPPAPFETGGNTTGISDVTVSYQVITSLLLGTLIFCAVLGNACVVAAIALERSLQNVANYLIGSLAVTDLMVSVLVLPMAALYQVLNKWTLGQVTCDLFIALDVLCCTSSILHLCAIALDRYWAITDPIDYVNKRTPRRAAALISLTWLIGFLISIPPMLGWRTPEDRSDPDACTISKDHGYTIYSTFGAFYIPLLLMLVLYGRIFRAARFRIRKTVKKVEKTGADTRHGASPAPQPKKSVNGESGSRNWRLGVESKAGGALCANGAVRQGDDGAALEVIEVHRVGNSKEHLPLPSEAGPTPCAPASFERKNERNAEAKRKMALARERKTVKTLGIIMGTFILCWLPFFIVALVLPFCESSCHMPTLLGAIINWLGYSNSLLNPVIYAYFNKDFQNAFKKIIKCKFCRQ

[3] = biological target: T3, 5-hydroxytryptamine receptor 2C (Homo sapiens, UniProt P28335)
T3 sequence (P28335 whole entry): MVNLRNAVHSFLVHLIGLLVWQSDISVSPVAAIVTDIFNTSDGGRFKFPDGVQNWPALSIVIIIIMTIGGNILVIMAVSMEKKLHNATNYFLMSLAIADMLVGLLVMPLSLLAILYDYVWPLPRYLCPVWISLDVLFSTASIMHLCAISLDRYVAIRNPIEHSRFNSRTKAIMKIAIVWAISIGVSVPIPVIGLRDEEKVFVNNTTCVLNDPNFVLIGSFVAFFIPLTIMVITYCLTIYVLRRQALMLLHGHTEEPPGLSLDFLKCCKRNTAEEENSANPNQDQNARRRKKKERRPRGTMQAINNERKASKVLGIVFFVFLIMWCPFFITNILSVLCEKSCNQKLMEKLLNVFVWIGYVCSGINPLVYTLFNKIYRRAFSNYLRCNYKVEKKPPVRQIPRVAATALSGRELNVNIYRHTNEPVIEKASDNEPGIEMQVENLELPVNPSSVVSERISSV

[4] = biological target: T4, 5-hydroxytryptamine receptor 3A (Homo sapiens, UniProt P46098); type: functional
T4 sequence (P46098 whole entry): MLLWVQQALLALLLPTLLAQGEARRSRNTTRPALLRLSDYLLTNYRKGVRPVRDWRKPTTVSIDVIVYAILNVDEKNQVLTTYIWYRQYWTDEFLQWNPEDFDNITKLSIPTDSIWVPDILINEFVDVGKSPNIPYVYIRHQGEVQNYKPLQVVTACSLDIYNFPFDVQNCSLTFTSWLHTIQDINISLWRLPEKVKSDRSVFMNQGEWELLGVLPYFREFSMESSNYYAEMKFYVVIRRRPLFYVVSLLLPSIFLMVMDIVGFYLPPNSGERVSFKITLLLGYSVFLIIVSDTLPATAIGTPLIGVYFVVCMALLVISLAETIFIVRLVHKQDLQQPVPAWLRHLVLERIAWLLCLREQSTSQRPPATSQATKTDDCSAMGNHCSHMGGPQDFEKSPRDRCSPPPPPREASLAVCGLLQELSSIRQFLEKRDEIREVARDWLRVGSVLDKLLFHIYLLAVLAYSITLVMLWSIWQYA

[5] = biological target: 3',5'-cyclic-AMP phosphodiesterase 4D (Homo sapiens, UniProt Q08499); type: functional
[6] = biological target: T5, Prostaglandin G/H synthase 1 (Rattus norvegicus, UniProt Q63921); type: functional
T5 sequence (Q63921 whole entry): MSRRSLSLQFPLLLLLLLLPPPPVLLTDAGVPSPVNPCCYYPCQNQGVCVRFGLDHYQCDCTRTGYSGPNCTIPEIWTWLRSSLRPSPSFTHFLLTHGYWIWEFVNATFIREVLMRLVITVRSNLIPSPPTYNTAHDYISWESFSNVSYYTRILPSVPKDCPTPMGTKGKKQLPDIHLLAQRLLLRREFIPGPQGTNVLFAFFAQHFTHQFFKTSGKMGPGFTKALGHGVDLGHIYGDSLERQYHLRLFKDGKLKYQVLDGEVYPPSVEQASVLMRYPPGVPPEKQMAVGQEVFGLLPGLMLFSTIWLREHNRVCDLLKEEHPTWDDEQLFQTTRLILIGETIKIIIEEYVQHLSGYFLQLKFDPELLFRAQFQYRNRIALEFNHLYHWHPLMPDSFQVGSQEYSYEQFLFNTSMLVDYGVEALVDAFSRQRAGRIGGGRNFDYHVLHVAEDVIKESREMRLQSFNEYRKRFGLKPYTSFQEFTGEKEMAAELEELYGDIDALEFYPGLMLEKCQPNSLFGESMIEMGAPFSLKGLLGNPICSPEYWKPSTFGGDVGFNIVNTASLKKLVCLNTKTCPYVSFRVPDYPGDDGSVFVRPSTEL
Note: assay procedure not described here.

Sequence of 3',5'-cyclic-AMP phosphodiesterase 4D (Q08499 whole entry): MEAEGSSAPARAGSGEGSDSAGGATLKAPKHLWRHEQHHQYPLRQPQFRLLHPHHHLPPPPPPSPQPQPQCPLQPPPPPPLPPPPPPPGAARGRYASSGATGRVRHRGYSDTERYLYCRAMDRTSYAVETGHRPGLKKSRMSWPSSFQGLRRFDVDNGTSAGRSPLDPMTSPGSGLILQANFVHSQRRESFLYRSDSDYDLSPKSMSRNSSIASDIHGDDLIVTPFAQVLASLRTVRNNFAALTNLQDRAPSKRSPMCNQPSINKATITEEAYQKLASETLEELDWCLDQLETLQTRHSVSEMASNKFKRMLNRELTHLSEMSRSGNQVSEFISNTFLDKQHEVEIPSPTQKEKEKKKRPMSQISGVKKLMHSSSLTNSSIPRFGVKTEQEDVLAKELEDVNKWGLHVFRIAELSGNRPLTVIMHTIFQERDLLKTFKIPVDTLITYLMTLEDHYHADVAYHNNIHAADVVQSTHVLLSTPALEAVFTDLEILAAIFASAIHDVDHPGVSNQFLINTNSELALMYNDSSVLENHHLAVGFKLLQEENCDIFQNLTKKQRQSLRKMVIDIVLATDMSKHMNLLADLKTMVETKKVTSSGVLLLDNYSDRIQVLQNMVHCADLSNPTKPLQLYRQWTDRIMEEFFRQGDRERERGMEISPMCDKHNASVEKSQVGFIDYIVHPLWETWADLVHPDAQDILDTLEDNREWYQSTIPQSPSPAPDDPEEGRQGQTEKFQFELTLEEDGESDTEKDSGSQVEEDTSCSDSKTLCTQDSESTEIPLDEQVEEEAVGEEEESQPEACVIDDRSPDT
Sequence of Neuronal acetylcholine receptor subunit alpha-4 (P43681 whole entry): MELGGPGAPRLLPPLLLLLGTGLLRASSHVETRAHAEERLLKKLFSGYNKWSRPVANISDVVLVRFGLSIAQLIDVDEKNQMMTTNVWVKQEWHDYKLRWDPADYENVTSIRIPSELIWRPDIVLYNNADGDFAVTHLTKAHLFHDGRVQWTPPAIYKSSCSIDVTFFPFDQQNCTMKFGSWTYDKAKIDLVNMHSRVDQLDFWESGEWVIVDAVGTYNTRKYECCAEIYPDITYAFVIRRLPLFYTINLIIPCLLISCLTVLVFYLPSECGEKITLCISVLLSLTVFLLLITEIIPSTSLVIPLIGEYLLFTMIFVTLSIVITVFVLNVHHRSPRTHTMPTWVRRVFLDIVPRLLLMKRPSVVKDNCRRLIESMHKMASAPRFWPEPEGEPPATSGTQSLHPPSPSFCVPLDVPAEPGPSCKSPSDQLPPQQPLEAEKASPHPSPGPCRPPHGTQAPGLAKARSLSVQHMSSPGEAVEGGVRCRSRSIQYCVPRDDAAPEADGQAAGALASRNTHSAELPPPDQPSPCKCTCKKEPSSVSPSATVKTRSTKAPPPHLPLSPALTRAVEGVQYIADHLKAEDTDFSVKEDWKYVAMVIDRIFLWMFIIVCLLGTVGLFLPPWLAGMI

Oc1ccc2c(c1)CC[C@H](c1ccccc1)[C@@H]2c1ccc(OCCN2CCCC2)cc1 [LASOFOXIFENE]
AC50 (Adenosine receptor A3): 5.8 µM
AC50 [1]: > 30 µM
AC50 [2]: > 30 µM
AC50 [3]: 5.3 µM
AC50 [4]: > 30 µM
AC50 [5]: 15 µM
AC50 [6]: 5 µM

CC(C(=O)O)c1ccc(CC2CCCC2=O)cc1 (stereo unspecified) [LOXOPROFEN]
AC50 (Adenosine receptor A3): > 30 µM
AC50 [1]: > 30 µM
AC50 [2]: > 30 µM
AC50 [3]: > 30 µM
AC50 [4]: > 30 µM
AC50 [5]: > 30 µM
AC50 [6]: > 30 µM

C[C@H](Cc1ccc(O)c(O)c1)[C@@H](C)Cc1ccc(O)c(O)c1 [MASOPROCOL]
AC50 (Adenosine receptor A3): 5.4 µM and 4.7 µM and 4.1 µM
AC50 [1]: > 30 µM
AC50 [2]: > 10 µM
AC50 [3]: > 30 µM
AC50 [4]: > 30 µM
AC50 [5]: 4.2 µM and 2.8 µM and 3.1 µM
AC50 [6]: 18 µM and 14 µM and 12 µM

OC1(c2ccc(Cl)cc2)c2ccccc2C2=NCCN21 (stereo unspecified) [MAZINDOL]
AC50 (Adenosine receptor A3): 9.6 µM
AC50 [1]: > 30 µM
AC50 [2]: > 30 µM
AC50 [3]: > 30 µM
AC50 [4]: > 30 µM
AC50 [5]: > 30 µM
AC50 [6]: > 30 µM

CC12CC3CC(C)(C1)CC(N)(C3)C2 [MEMANTINE]
AC50 (Adenosine receptor A3): > 30 µM
AC50 [1]: > 10 µM
AC50 [2]: > 10 µM
AC50 [3]: > 30 µM
AC50 [4]: > 30 µM
AC50 [5]: > 30 µM
AC50 [6]: > 30 µM

CN(C)CCCNc1c2ccccc2nc2cccc([N+](=O)[O-])c12 [NITRACRINE]
AC50 (Adenosine receptor A3): > 30 µM
AC50 [1]: > 30 µM
AC50 [2]: > 30 µM
AC50 [3]: 2.7 µM
AC50 [4]: > 30 µM
AC50 [5]: 21 µM
AC50 [6]: > 30 µM

CCOC(=O)C1=C(C)NC(C)=C(C(=O)OC)C1c1cccc([N+](=O)[O-])c1 (stereo unspecified) [NITRENDIPINE]
AC50 (Adenosine receptor A3): > 30 µM
AC50 [1]: > 10 µM
AC50 [2]: > 10 µM
AC50 [3]: > 30 µM
AC50 [4]: > 30 µM
AC50 [5]: > 30 µM
AC50 [6]: > 30 µM

C#C[C@]1(OC(C)=O)CC[C@H]2[C@@H]3CCC4=C/C(=N/O)CC[C@@H]4[C@H]3CC[C@@]21CC [NORGESTIMATE]
AC50 (Adenosine receptor A3): 11 µM
AC50 [1]: > 30 µM
AC50 [2]: > 30 µM
AC50 [3]: > 30 µM
AC50 [4]: > 30 µM
AC50 [5]: 13 µM
AC50 [6]: 7.8 µM

[H]/N=C(/N)N/C(=N/[H])NCCc1ccccc1 [PHENFORMIN]
AC50 (Adenosine receptor A3): > 30 µM
AC50 [1]: > 10 µM
AC50 [2]: > 30 µM
AC50 [3]: > 30 µM
AC50 [4]: > 30 µM
AC50 [5]: > 30 µM
AC50 [6]: > 30 µM

CCCCC1C(=O)N(c2ccccc2)N(c2ccccc2)C1=O [PHENYLBUTAZONE]
AC50 (Adenosine receptor A3): > 30 µM
AC50 [1]: > 30 µM
AC50 [2]: > 10 µM
AC50 [3]: > 30 µM
AC50 [4]: > 30 µM
AC50 [5]: > 30 µM
AC50 [6]: > 10 µM

CC(N)C(O)c1ccccc1 (stereo unspecified) [PHENYLPROPANOLAMINE]
AC50 (Adenosine receptor A3): > 30 µM
AC50 [1]: > 10 µM
AC50 [2]: > 10 µM
AC50 [3]: > 30 µM
AC50 [4]: > 10 µM
AC50 [5]: > 30 µM
AC50 [6]: > 30 µM

Clc1ccc2c(N3CCN(CCCN4CCN(c5ccnc6cc(Cl)ccc56)CC4)CC3)ccnc2c1 [PIPERAQUINE]
AC50 (Adenosine receptor A3): > 30 µM
AC50 [1]: > 30 µM
AC50 [2]: > 30 µM
AC50 [3]: > 30 µM
AC50 [4]: > 30 µM
AC50 [5]: 22 µM
AC50 [6]: > 30 µM

CCCN[C@H]1CCc2nc(N)sc2C1 [PRAMIPEXOLE]
AC50 (Adenosine receptor A3): > 30 µM
AC50 [1]: > 10 µM
AC50 [2]: 16 µM
AC50 [3]: > 30 µM
AC50 [4]: > 30 µM
AC50 [5]: > 30 µM
AC50 [6]: > 30 µM

Cc1noc(NS(=O)(=O)c2ccc(N)cc2)c1C [SULFISOXAZOLE]
AC50 (Adenosine receptor A3): > 10 µM
AC50 [1]: > 10 µM
AC50 [2]: > 10 µM
AC50 [3]: > 30 µM
AC50 [4]: > 30 µM
AC50 [5]: > 30 µM
AC50 [6]: > 10 µM

CC1(C)S[C@@H]2[C@H](NC(=O)[C@H](N)c3ccccc3)C(=O)N2[C@H]1C(=O)OCOC(=O)[C@@H]1N2C(=O)C[C@H]2S(=O)(=O)C1(C)C [SULTAMICILLIN]
AC50 (Adenosine receptor A3): > 30 µM
AC50 [1]: > 30 µM
AC50 [2]: > 30 µM
AC50 [3]: > 30 µM
AC50 [4]: > 30 µM
AC50 [5]: > 30 µM
AC50 [6]: > 30 µM

CCC(=O)O[C@H]1CC[C@H]2[C@@H]3CCC4=CC(=O)CC[C@]4(C)[C@H]3CC[C@]12C [TESTOSTERONE PROPIONATE]
AC50 (Adenosine receptor A3): > 10 µM
AC50 [1]: > 10 µM
AC50 [2]: > 10 µM
AC50 [3]: > 30 µM
AC50 [4]: > 30 µM
AC50 [5]: > 30 µM
AC50 [6]: > 10 µM

Clc1ccc(C(Cn2ccnc2)OCc2ccsc2Cl)c(Cl)c1 (stereo unspecified) [TIOCONAZOLE]
AC50 (Adenosine receptor A3): 6.43 µM
AC50 [1]: > 30 µM
AC50 [2]: > 30 µM
AC50 [3]: > 30 µM
AC50 [4]: > 30 µM
AC50 [5]: 8.7 µM
AC50 [6]: 12.4 µM

Cc1cccc(N2CC(CO)OC2=O)c1 (stereo unspecified) [TOLOXATONE]
AC50 (Adenosine receptor A3): > 30 µM
AC50 [1]: > 30 µM
AC50 [2]: > 30 µM
AC50 [3]: > 30 µM
AC50 [4]: > 30 µM
AC50 [5]: > 30 µM
AC50 [6]: > 30 µM

CC(C)[C@H](N)C(=O)OCC(CO)OCn1cnc2c(=O)nc(N)[nH]c21 (stereo partly specified) [VALGANCICLOVIR]
AC50 (Adenosine receptor A3): > 30 µM
AC50 [1]: > 30 µM
AC50 [2]: > 30 µM
AC50 [3]: > 30 µM
AC50 [4]: > 30 µM
AC50 [5]: > 30 µM
AC50 [6]: > 30 µM

CCC(C)C(CC)C(N)=O (stereo unspecified) [VALNOCTAMIDE]
AC50 (Adenosine receptor A3): > 30 µM
AC50 [1]: > 30 µM
AC50 [2]: > 30 µM
AC50 [3]: > 30 µM
AC50 [4]: > 30 µM
AC50 [5]: > 30 µM
AC50 [6]: > 30 µM

CCCC(CCC)C(N)=O [VALPROMIDE]
AC50 (Adenosine receptor A3): > 30 µM
AC50 [1]: > 10 µM
AC50 [2]: > 30 µM
AC50 [3]: > 30 µM
AC50 [4]: > 30 µM
AC50 [5]: > 30 µM
AC50 [6]: > 30 µM

CCOC(=O)C1=C[C@]2(CC)CCCN3CCc4c(n1c1ccccc41)[C@@H]32 [VINPOCETINE]
AC50 (Adenosine receptor A3): > 30 µM
AC50 [1]: > 30 µM
AC50 [2]: > 30 µM
AC50 [3]: > 30 µM
AC50 [4]: > 30 µM
AC50 [5]: 8.8 µM
AC50 [6]: > 30 µM

Cc1cc(C(C)(C)C)cc(C)c1CC1=NCCN1 [XYLOMETAZOLINE]
AC50 (Adenosine receptor A3): > 30 µM
AC50 [1]: > 30 µM
AC50 [2]: 0.0178 µM
AC50 [3]: 10 µM
AC50 [4]: > 30 µM
AC50 [5]: > 30 µM
AC50 [6]: > 30 µM

— ChEMBL document CHEMBL5291721, “A preclinical secondary pharmacology resource illuminates target-adverse drug reaction associations of marketed drugs” (Nat Commun, 2023)
